Measurements as given in patent publication US6287813A, “Antibiotic-based gene regulation system” (Cistronics Cell Technology GmbH, priority 1999, dated 2001).

Columns and labels:
[1] = molecular target: T1, PIT3/PPIR ON (Streptomyces coelicolor, UniProt Q9ADN3); test: PipON SEAP assay, CHO-K1 cotransfected with pMF208 (PPIR ON-SEAP) and pMF207 (PIT3; Pip-KRAB); type: cell-based
T1 construct: pMF207 with pMF208 in CHO-K1
T1 sequence (Q9ADN3 1-252): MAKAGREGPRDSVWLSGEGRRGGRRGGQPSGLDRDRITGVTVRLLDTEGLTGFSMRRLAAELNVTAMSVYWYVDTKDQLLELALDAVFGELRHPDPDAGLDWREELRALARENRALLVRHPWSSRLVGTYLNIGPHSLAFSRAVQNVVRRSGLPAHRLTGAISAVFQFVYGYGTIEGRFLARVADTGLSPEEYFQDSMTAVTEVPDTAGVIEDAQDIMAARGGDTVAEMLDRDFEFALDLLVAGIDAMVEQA
Source text: The Classical PIT/PPIR system belongs to the "OFF" family of regulation concepts since gene expression is activated upon withdrawal of the regulating antibiotic. However, in some applications such as gene therapy and tissue engineering an "ON" system which is induced upon addition of streptogramin antibiotics is more desirable. We therefore constructed a new Pip-based binary PION system which consists of a PPIR ON promoter and a set of two different transrepressors. PPIR ON consists of a PIR3 module containing 3 consecutive Pip binding elements (SEQ ID NO:21; Example 3) placed in front of the strong viral SV40 promoter. Transrepressors such as PIT3, which consists of a protein fusion between Pip and the KRAB silencing domain of the human kox-1 gene (Deuschle et al., 1995, Mol. Cell Biol. 15: 1907-1914) and PIT4, which is simply Pip expressed in a eukaryotic configuration, bind to PIR3 in front of PSV40 and block transcription of this promoter. Besides sterical transcription blocking the silencing domain of PIT3 can additionally downregulate PSV40 activity. […]
Table 9: Comparison of the regulation characteristics of the PipON systems. CHO-K1 cells were simultaneously cotransfected with the plasmids indicated and the SEAP readout (slope a of the p-nitrophenolphosphate-based light absorbance time courses) was determined in the presence and absence of pristinamycin 48 hr post transfection. […]

[2] = molecular target: T2, PIT/PPIR system (Streptomyces coelicolor, UniProt Q9ADN3); test: Positive feedback vector pMF170 (PPIR-GFP-IRES-PIT-pA), GFP fluorescence microscopy; type: cell-based; details: pMF170 in CHO-K1, BHK-21 or HeLa cells
T2 construct: pMF156/pTWIN in CHO cells, PPIR-SEAP or GFP reporter
T2 sequence (Q9ADN3 1-252): T1 sequence (Q9ADN3 1-252)
Source text: These positive feedback regulation vectors that were constructed contain both the green fluorescent protein GFP and PIT in a dicistronic, PPIR -driven configuration.
For construction of the autoregulatory system, PIT was excised from pMF156 by EcoRI/HindIII and cloned into the polylinker of the eukaryotic expression vector pSBC-2 (EcoRI/HindIII). As a pSBC-2 derivative, the resulting plasmid pMF169 is compatible to the pSBC-1 derivative pMF164 (PPIR -GFP) and allows fusion of both expression units via their SspI/NotI restriction sites, thereby generating pMF170. pMF170 contains a dicistronic PPIR -regulated expression unit encoding GFP in the first and PIT in the second cistron. Cap-independent translation initiation of the second cistron is enabled by a picornaviral internal ribosomal entry site (IRES) encoded upstream of PIT.

## pristinamycin I [PI]
[1]; +PI (2 μg/ml) column, CHO + pMF208 + pMF207, 48 hr post transfection
  SEAP readout (slope of the p-nitrophenolphosphate-based light absorbance time courses): 0.00055 ± 0.0003
[1]; PIT3-PPIR ON configuration, 2880 min
  Induction factor: about 150
[2]
  GFP-expression in the presence of PI: completely repressed
